The source of these data is patent US20170196296A1, “Amphoteric Metal Compound-Treated Substrate And Methods For Reduction Of Body Odor Using Treated Substrates” (priority 2016, published 2017).

The data set can be described thus: solubility of copper hydroxide in ammonia solutions. It counts as physicochemical. The text has this:
If the substrate is desirably a keratin-based material, then the substrate is selected from materials such as wool or hair (such as alpaca hair), and the AMH compound is preferably copper hydroxide (Cu[OH]2), which can be dissolved in an ammonia solution, resulting in an aqua ammonia solution of Schweizer's reagent, Cu[NH3]4[H2O]2][OH]2. […] Standard aqua ammonia (25%) saturates at only about 3% copper hydroxide W/W, and the concentrated ammonia solution is hazardous to breathe. However, the ammonia in the aqua ammonia+copper hydroxide solution can be mostly substituted with harmless ingredients. For example, a wool substrate can be soaked in an aqueous solution which is composed of only 3% ammonia, 4% W/W of ammonium chloride and 10% W/W of sodium carbonate will also dissolve 3% copper hydroxide, and after drying, the ammonium chloride and sodium carbonate can be rinsed away. A wool substrate thus treated will retain as much copper hydroxide as a substrate treated in solution of 3% copper hydroxide (saturated solution) in aqua ammonia (25% ammonia). Upon being soaked in either formula of 3% copper hydroxide solution, the surface of the wool immediately absorbs the copper hydroxide. Excess solution is squeezed out of the substrate material, and the substrate is allowed to dry. […]

In the case of `[OH][Cu][OH]` [Cu(OH)2, copper(ii) hydroxide], for the setting “3% ammonia, 4% W/W ammonium chloride, 10% W/W sodium carbonate”, the “amount dissolved in aqueous ammonia/ammonium chloride/sodium carbonate solution” value worked out at 3%. In addition, the “saturation concentration in standard aqua ammonia” value (aqua ammonia (25%)) is on record as “about 3 % W/W”.
